The RepoRT retention time repository

Experiment: RP, Waters ACQUITY UPLC BEH C18, 50 × 2.1 mm, 1.7 µm, 35 °C, 0.25 mL/min, estimated dead time 0.44 min; A: water + 0.1% acetic acid, pH 3; B: acetonitrile; gradient (min/%B) 0/5 1.12/5 6.41/99.5 10.01/99.5
Settings: stereoisomer not certain

Structure (SMILES) | LC retention time [min]
NC(=O)CCC(NC(=O)Cc1ccccc1)C(=O)O (stereo not given) [phenylacetylglutamine] | 2
O=S(=O)([O-])Oc1c[nH]c2ccccc12.[K+] [indoxyl sulfuric acid] | 2
O=C(O)CCCCCCCCCCCCCCC(=O)O [hexadecanedioic acid] | 9.37
CCCCCCCCCCCCCCCCCC(=O)OCC(O)COP(=O)([O-])OCC[N+](C)(C)C (stereo not given) [lysoPC(18:0/0:0)] | 11.5
O=C(O)CCCCCCCC(=O)O [nonanedioic acid] | 5
CCCCCCCCCCCCCCCCC(=O)O [heptadecanoic acid] | 15
NC(Cc1c[nH]c2ccccc12)C(=O)O (stereo not given) [tryptophan] | 1
CCCCCCCCCC(=O)O [decanoic acid] | 10
NC(Cc1ccccc1)C(=O)NC(Cc1ccccc1)C(=O)O (stereo not given) [Phe-phe] | 4
COCC(NC(C)=O)C(=O)NCc1ccccc1 (stereo not given) [lacosamide] | 4
